Measurements reported in the NIST ThermoML archive (doi:10.1016/j.fluid.2019.06.021).
Numbers after ± are expanded uncertainties.

Details: Crystal; DTA

SMILES	Normal melting temperature
O=[N+]([O-])c1ccccc1Nc1ccccc1 [2-nitrodiphenylamine]	74.8 ± 0.9 °C
CCN(C(=O)N(CC)c1ccccc1)c1ccccc1 [1,3-diethyl-1,3-diphenylurea]	72.6 ± 0.9 °C
CC(=O)OCCNc1ccc([N+](=O)[O-])cc1 [2-[(4-nitrophenyl)amino]ethanol 1-acetate]	113.2 ± 0.9 °C
COCCNc1ccc([N+](=O)[O-])cc1 [N-(2-methoxyethyl)-4-nitroaniline]	85.8 ± 0.9 °C
c1ccc(Nc2ccccc2)cc1 [diphenylamine]	52.5 ± 0.9 °C
